# According to ChEMBL document CHEMBL6074678, “Selectively Antagonizing the NOD1-Mediated Inflammatory Signaling Pathway Mitigates the Gastric Inflammation Induced by Helicobacter pylori Infection” (J Med Chem, 2024):
# pIC50: −log10 of the molar value.
# Key:
# [1] = target: Toll-like receptor 4 (Homo sapiens) (UniProt O00206); experiment: Inhibition of human TLR4 at 1 uM relative to control
# [2] = target: T1, Nucleotide-binding oligomerization domain-containing protein 2 (Homo sapiens, UniProt Q9HC29); experiment: Inhibition of human NOD2 at 1 uM relative to control
# T1 sequence (Q9HC29 whole entry, the tested form may be a part): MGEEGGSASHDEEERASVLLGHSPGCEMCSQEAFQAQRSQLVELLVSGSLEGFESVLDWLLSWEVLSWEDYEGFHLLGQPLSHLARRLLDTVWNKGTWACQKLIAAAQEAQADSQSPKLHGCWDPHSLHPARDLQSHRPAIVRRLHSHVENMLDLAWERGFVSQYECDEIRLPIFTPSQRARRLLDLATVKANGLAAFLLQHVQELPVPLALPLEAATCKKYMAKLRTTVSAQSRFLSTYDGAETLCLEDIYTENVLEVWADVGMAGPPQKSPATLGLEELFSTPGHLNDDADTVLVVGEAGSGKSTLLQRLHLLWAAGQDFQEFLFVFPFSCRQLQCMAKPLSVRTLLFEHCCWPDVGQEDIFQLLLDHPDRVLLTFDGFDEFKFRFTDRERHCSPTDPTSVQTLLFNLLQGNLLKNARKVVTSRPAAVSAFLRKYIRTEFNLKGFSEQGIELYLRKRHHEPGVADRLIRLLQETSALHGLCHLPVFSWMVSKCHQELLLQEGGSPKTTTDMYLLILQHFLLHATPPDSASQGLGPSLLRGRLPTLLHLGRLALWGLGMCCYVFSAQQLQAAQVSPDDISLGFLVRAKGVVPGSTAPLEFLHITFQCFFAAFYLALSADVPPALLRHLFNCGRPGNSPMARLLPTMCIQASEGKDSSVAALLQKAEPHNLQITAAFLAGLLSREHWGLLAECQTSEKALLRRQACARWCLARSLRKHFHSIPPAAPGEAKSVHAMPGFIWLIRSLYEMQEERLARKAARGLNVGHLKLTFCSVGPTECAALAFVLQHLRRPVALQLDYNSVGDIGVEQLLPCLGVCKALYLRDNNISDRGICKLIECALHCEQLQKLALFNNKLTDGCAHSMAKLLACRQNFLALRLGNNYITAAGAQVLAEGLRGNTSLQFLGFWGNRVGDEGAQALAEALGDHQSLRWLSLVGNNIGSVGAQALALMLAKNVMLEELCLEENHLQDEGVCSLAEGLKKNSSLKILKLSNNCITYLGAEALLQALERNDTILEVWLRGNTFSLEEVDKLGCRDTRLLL
# [3] = target: Receptor-interacting serine/threonine-protein kinase 2 (Homo sapiens) (UniProt O43353); experiment: Inhibition of RIP2 (unknown origin) at 10 uM relative to control
# Chain of Receptor-interacting serine/threonine-protein kinase 2 (Homo sapiens) (O43353 whole entry, the tested form may be a part): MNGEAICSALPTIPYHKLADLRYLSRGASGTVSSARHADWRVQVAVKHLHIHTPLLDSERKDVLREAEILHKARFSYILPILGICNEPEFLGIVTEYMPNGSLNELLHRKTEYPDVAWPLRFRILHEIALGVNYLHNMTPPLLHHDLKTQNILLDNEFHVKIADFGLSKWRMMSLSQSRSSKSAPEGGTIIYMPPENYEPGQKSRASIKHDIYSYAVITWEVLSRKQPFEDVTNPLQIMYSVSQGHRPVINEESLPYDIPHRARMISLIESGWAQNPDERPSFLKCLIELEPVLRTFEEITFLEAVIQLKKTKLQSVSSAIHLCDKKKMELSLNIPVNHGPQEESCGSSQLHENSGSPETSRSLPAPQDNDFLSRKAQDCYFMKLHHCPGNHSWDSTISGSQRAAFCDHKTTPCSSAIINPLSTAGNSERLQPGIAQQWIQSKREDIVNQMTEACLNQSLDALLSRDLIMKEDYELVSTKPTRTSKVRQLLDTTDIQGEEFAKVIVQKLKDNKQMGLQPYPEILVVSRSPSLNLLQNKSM
# [4] = target: T2, Nucleotide-binding oligomerization domain-containing protein 1 (Mus musculus, UniProt Q8BHB0); experiment: Antagonist activity at mouse NOD1 expressed in HEK-Blue cells assessed as decrease in SEAP secretion incubated for 3 hrs followed by C12-iE-DAP stimulation for 20 hrs by spectrophotometry; assay type: cell-based, HEK-Blue mNOD1
# T2 sequence (Q8BHB0 whole entry): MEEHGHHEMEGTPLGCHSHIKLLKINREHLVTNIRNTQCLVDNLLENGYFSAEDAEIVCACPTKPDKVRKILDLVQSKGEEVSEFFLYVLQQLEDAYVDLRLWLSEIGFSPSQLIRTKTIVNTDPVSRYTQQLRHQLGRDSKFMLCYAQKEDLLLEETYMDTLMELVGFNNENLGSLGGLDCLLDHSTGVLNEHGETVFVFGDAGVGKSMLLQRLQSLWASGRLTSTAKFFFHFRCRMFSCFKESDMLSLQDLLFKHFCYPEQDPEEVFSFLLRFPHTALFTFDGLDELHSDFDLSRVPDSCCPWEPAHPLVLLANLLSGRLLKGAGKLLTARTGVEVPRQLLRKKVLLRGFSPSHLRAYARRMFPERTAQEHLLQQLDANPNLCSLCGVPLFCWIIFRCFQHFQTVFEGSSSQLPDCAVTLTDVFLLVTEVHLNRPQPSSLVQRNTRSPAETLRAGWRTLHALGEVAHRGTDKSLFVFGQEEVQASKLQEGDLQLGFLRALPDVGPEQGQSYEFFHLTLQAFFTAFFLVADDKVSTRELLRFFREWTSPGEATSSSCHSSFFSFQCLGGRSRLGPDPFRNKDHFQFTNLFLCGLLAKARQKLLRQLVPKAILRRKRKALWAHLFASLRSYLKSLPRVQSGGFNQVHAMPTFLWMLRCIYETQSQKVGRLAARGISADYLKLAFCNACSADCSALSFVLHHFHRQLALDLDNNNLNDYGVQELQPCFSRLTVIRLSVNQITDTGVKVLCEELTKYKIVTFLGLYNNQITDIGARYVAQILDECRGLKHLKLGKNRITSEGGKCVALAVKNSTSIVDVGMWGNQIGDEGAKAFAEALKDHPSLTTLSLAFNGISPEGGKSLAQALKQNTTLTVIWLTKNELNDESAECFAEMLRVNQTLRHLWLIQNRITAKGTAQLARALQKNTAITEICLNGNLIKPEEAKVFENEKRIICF
# [5] = Solubility of compound in phosphate buffer at pH 7.2 to 7.4; assay type: physicochemical
# [6] = target: T3, Nucleotide-binding oligomerization domain-containing protein 1 (Mus musculus) (UniProt Q8BHB0); experiment: Antagonist activity at mouse NOD1 expressed in HEK-Blue cells assessed as decrease in SEAP secretion at 1 uM incubated for 3 hrs followed by C12-iE-DAP stimulation for 20 hrs by spectrophotometry relative to control; assay type: cell-based; conditions: HEK-Blue mNOD1, filed as antagonist, time 23.0 hrs
# T3 sequence (whole entry): T2 sequence (Q8BHB0 whole entry)
# [7] = target: T4, Nucleotide-binding oligomerization domain-containing protein 1 (Homo sapiens, UniProt Q9Y239); experiment: Antagonist activity at human NOD1 expressed in HEK-Blue cells assessed as decrease in SEAP secretion incubated for 3 hrs followed by C12-iE-DAP stimulation for 20 hrs by spectrophotometry; assay type: cell-based, HEK-Blue hNOD1
# T4 sequence (Q9Y239 whole entry): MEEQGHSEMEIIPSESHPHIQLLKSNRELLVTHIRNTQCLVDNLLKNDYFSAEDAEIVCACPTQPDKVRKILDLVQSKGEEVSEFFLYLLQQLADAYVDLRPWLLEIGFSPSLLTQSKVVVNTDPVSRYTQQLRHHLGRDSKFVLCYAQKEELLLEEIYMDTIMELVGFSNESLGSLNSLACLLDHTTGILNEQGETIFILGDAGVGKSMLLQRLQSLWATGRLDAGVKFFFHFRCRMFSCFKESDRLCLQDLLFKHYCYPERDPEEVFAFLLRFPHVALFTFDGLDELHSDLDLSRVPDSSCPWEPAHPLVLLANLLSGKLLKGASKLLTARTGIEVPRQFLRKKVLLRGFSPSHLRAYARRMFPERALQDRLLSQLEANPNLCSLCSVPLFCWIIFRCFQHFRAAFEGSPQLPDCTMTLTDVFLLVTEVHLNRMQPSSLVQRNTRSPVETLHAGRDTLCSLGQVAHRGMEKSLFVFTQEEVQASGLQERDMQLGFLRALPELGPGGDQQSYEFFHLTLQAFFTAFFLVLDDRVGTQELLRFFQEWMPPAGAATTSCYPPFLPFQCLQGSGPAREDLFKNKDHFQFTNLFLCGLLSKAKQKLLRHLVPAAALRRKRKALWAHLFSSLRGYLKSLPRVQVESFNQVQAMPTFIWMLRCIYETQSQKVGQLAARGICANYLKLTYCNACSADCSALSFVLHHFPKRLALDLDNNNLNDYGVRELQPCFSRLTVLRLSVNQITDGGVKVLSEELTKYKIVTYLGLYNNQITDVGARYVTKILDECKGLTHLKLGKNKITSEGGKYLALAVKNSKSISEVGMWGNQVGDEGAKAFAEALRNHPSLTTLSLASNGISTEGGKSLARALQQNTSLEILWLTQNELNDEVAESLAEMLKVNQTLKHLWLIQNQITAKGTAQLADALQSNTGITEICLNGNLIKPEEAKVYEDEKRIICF
# [8] = target: T5, Nucleotide-binding oligomerization domain-containing protein 2 (Mus musculus) (UniProt Q8K3Z0); experiment: Inhibition of mouse NOD2 at 1 uM relative to control
# T5 sequence (whole entry): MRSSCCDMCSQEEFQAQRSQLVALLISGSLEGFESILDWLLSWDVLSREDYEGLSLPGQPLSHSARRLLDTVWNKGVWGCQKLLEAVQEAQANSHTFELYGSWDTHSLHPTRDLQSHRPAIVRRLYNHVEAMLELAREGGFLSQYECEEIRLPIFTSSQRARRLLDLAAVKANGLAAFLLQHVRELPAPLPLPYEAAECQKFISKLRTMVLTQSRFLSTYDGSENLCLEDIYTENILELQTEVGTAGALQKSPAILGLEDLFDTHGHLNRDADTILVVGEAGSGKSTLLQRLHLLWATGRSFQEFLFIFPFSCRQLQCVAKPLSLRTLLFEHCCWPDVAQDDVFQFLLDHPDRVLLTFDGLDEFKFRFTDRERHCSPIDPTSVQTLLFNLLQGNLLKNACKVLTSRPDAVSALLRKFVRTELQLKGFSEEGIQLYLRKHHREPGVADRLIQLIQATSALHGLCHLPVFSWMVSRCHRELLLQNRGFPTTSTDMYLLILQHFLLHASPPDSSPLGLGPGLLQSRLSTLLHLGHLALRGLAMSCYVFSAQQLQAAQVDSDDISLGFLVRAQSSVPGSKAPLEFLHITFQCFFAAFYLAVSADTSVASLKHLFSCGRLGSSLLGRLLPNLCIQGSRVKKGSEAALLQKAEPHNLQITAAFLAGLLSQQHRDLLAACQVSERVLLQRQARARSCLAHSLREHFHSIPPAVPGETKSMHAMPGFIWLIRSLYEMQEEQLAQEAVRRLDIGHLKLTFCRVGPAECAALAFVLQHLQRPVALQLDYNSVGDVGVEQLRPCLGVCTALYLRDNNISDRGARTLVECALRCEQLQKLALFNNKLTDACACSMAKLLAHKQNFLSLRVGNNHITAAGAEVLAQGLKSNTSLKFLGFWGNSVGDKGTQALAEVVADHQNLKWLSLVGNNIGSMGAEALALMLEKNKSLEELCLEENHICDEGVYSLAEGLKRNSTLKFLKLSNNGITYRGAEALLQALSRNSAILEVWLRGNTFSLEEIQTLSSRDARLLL
# [9] = target: T3, Nucleotide-binding oligomerization domain-containing protein 1 (Mus musculus); experiment: Antagonist activity at mouse NOD1 expressed in HEK-Blue cells assessed as decrease in SEAP secretion at 5 uM incubated for 3 hrs followed by C12-iE-DAP stimulation for 20 hrs by spectrophotometry relative to control; assay type: cell-based
# [10] = target: T1, Nucleotide-binding oligomerization domain-containing protein 2; experiment: Antagonist activity at human NOD2 expressed in HEK293 cells assessed as decrease in MDP-stimulated IL-8 release incubated for 24 hrs by fluorescence based assay; assay type: cell-based
# [11] = Metabolic stability in human liver microsomes assessed as half life at 1.25 uM preincubated for 5 mins followed by NADPH addition measured upto 120 mins by LC-MS/MS analysis; assay type: ADME, Microsome; conditions: time < 125 min
# [12] = Metabolic stability in mouse liver microsomes assessed as intrinsic clearance at 1.25 uM preincubated for 5 mins followed by NADPH addition measured upto 120 mins by LC-MS/MS analysis; assay type: ADME, Microsome; conditions: time < 125 min, read-out: CLH
# [13] = Metabolic stability in mouse liver microsomes assessed as hepatic clearance at 1.25 uM preincubated for 5 mins followed by NADPH addition measured upto 120 mins by LC-MS/MS analysis; assay type: ADME, Microsome; conditions: time < 125 min
# [14] = Metabolic stability in human liver microsomes assessed as intrinsic clearance at 1.25 uM preincubated for 5 mins followed by NADPH addition measured upto 120 mins by LC-MS/MS analysis; assay type: ADME, Microsome; conditions: time < 125 min, read-out: CLH
# [15] = Metabolic stability in mouse liver microsomes assessed as half life at 1.25 uM preincubated for 5 mins followed by NADPH addition measured upto 120 mins by LC-MS/MS analysis; assay type: ADME, Microsome; conditions: time < 125 min
# [16] = Metabolic stability in human liver microsomes assessed as hepatic clearance at 1.25 uM preincubated for 5 mins followed by NADPH addition measured upto 120 mins by LC-MS/MS analysis; assay type: ADME, Microsome; conditions: time < 125 min
# [17] = HEK-Blue mNOD1, filed as antagonist, time 23.0 hrs
# Chain of Toll-like receptor 4 (Homo sapiens) (O00206 whole entry, the tested form may be a part): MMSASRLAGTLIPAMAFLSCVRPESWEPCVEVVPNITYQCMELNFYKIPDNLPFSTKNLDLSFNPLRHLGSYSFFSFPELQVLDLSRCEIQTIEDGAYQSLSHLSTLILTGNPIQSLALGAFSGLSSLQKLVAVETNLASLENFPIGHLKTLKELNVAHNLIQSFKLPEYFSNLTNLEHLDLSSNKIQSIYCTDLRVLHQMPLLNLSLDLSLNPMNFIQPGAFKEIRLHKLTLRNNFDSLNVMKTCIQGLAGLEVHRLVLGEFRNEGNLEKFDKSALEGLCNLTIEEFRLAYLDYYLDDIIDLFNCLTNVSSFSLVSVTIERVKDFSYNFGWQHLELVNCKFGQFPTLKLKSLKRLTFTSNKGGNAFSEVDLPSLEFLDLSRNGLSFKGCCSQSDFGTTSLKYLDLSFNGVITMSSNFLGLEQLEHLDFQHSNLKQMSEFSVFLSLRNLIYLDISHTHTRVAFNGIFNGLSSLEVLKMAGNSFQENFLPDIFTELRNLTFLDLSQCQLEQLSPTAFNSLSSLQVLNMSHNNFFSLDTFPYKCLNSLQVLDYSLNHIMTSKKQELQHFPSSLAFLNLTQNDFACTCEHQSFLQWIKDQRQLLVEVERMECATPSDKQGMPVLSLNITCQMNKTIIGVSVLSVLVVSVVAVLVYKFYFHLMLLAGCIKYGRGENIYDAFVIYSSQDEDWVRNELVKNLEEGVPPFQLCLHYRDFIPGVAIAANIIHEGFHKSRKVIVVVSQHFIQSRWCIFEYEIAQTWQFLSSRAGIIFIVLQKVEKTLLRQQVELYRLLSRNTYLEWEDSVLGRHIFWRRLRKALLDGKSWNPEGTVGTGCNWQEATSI
compound,measurement,setting,value
O=c1c2ccncc2nc(Cl)n1-c1ccc(Cl)c(NS(=O)(=O)c2c(F)cccc2F)c1,inhibition,[1],< 10%
same,inhibition,[2],< 10%
same,inhibition,[3],< 10%
same,pIC50,[4],7.11
same,solubility,[5],5.7 µg/mL
same,inhibition,[6],83.7%
same,pIC50,[7],8.28
same,inhibition,[8],< 10%
O=c1c2cc(Cl)ccc2nc(Cl)n1-c1ccc(Cl)c(NS(=O)(=O)c2ccccc2F)c1,inhibition,[9]; [17],67.4%
same,pIC50,[4],5.58
same,inhibition,[6],42.7%
same,pIC50,[7],7.40
Cc1nc2ccc(NC(=O)c3cccc(NS(=O)(=O)c4ccc(F)cc4)c3)cc2s1,pIC50,[10],< 4.30
O=c1c2cc(Cl)cnc2nc(Cl)n1-c1ccc(Cl)c(NS(=O)(=O)c2ccccc2F)c1,half-life at 1.25 µM,[11],28 min
same,microsomal CLint at 1.25 µM,[12],99.9 µL/min/mg
same,CLhep predicted at 1.25 µM,[13],73.2 mL/min/kg
same,microsomal CLint at 1.25 µM,[14],49.4 µL/min/mg
same,half-life at 1.25 µM,[15],13.9 min
same,pIC50,[4],6.73
same,inhibition,[6],84.3%
same,CLhep predicted at 1.25 µM,[16],15.2 mL/min/kg
Nc1nc2ccc(Cl)cc2c(=O)n1-c1ccc(Cl)c(NS(=O)(=O)c2ccccc2F)c1,inhibition,"[9]; HEK-Blue mNOD1, time 23.0 hrs",27.3%
same,pIC50,[7],7.36
O=c1c2cc(Cl)ccc2nc(NCCCN2CCOCC2)n1-c1ccc(Cl)c(NS(=O)(=O)c2ccccc2F)c1,inhibition,[9]; [17],46.5%
same,pIC50,[7],7.49
O=c1c2cc(Cl)ccc2nc(SCCOc2ccc(F)cc2)n1-c1ccc(Cl)c(NS(=O)(=O)c2ccccc2F)c1,inhibition,"[9]; HEK-Blue mNOD1, time 23.0 hrs",< 10%
same,pIC50,[7],6.13
O=C(CSc1nc2ccc(Cl)cc2c(=O)n1-c1ccc(Cl)c(NS(=O)(=O)c2ccccc2F)c1)Nc1ccccc1,inhibition,"[9]; HEK-Blue mNOD1, time 23.0 hrs",< 10%
same,pIC50,[7],7.36
CS(=O)(=O)c1ccc2nc(Cl)n(-c3ccc(Cl)c(NS(=O)(=O)c4ccccc4C#N)c3)c(=O)c2c1,half-life at 1.25 µM,[15],20.6 min
same,pIC50,[4],7.18
same,solubility,[5],34.2 µg/mL
O=c1c2cc(Cl)ncc2nc(Cl)n1-c1ccc(Cl)c(NS(=O)(=O)c2ccccc2F)c1,half-life at 1.25 µM,[11],115 min
same,microsomal CLint at 1.25 µM,[12],26.2 µL/min/mg
same,CLhep predicted at 1.25 µM,[13],48 mL/min/kg
same,microsomal CLint at 1.25 µM,[14],12 µL/min/mg
same,half-life at 1.25 µM,[15],53 min
same,pIC50,[4],6.93
same,inhibition,[6],85.6%
same,pIC50,[7],8.74
same,CLhep predicted at 1.25 µM,[16],8.3 mL/min/kg
C=CC(=O)Nc1nc2ccc(Cl)cc2c(=O)n1-c1ccc(Cl)c(NS(=O)(=O)c2ccccc2F)c1,inhibition,[9]; [17],53.3%
same,pIC50,[4],5.14
same,pIC50,[7],7.57
CC(C)NC(=O)CSc1nc2ccc(Cl)cc2c(=O)n1-c1ccc(Cl)c(NS(=O)(=O)c2ccccc2F)c1,inhibition,"[9]; HEK-Blue mNOD1, time 23.0 hrs",< 10%
same,pIC50,[7],7.60
O=c1c2cc(Cl)ccc2nc(C(F)(F)F)n1-c1ccc(Cl)c(NS(=O)(=O)c2ccccc2F)c1,inhibition,[9]; [17],73.2%
same,pIC50,[4],5.23
same,pIC50,[7],7.17
O=c1c2nc(Cl)ccc2nc(Cl)n1-c1ccc(Cl)c(NS(=O)(=O)c2ccccc2F)c1,half-life at 1.25 µM,[11],104 min
same,microsomal CLint at 1.25 µM,[12],35.4 µL/min/mg
same,CLhep predicted at 1.25 µM,[13],54.7 mL/min/kg
same,microsomal CLint at 1.25 µM,[14],13.4 µL/min/mg
same,half-life at 1.25 µM,[15],39.1 min
same,pIC50,[4],6.71
same,inhibition,[6],84.6%
same,pIC50,[7],7.96
same,CLhep predicted at 1.25 µM,[16],8.9 mL/min/kg
